ChEMBL document CHEMBL5523734, “Backbone-Determined Antiarrhythmic Structure-Activity Relationships for a Mirror Image, Oligomeric Depsipeptide Natural Product” (J Med Chem, 2024)
Activity calls are given as the source filed them. The calls are words filed in the database; no cut-off is given here. Numbered stars: 1 amine (or outer) side, 2 acyl side, 3 side chain; on linkers, the order of the positions; unused ones are H or OH. Square brackets hold non-standard residues; d marks the D form. Peptide text beside a SMILES is read from it. X1 = CCCCC[C@H](O[*:1])C(=O)[*:2]; NMeAhp(2) = CCCCC[C@H](NC)C(=O)O; Ahp(2) = CCCCC[C@H](N)C(=O)O; dNMeA = CN[C@H](C)C(=O)O

Assays:
[1] = molecular target: Ryanodine receptor 2 (Mus musculus) (UniProt E9Q401); experiment: Inhibition of RyR2-mediated calcium spark frequency in saponin-permeabilized left ventricular myocytes of C57BL/6J mouse at 25 uM incubated for 15 min by Fluo-4 dye based analysis; type: cell-based; details: Ventricular myocyte
Sequence of Ryanodine receptor 2 (Mus musculus) (E9Q401 whole entry): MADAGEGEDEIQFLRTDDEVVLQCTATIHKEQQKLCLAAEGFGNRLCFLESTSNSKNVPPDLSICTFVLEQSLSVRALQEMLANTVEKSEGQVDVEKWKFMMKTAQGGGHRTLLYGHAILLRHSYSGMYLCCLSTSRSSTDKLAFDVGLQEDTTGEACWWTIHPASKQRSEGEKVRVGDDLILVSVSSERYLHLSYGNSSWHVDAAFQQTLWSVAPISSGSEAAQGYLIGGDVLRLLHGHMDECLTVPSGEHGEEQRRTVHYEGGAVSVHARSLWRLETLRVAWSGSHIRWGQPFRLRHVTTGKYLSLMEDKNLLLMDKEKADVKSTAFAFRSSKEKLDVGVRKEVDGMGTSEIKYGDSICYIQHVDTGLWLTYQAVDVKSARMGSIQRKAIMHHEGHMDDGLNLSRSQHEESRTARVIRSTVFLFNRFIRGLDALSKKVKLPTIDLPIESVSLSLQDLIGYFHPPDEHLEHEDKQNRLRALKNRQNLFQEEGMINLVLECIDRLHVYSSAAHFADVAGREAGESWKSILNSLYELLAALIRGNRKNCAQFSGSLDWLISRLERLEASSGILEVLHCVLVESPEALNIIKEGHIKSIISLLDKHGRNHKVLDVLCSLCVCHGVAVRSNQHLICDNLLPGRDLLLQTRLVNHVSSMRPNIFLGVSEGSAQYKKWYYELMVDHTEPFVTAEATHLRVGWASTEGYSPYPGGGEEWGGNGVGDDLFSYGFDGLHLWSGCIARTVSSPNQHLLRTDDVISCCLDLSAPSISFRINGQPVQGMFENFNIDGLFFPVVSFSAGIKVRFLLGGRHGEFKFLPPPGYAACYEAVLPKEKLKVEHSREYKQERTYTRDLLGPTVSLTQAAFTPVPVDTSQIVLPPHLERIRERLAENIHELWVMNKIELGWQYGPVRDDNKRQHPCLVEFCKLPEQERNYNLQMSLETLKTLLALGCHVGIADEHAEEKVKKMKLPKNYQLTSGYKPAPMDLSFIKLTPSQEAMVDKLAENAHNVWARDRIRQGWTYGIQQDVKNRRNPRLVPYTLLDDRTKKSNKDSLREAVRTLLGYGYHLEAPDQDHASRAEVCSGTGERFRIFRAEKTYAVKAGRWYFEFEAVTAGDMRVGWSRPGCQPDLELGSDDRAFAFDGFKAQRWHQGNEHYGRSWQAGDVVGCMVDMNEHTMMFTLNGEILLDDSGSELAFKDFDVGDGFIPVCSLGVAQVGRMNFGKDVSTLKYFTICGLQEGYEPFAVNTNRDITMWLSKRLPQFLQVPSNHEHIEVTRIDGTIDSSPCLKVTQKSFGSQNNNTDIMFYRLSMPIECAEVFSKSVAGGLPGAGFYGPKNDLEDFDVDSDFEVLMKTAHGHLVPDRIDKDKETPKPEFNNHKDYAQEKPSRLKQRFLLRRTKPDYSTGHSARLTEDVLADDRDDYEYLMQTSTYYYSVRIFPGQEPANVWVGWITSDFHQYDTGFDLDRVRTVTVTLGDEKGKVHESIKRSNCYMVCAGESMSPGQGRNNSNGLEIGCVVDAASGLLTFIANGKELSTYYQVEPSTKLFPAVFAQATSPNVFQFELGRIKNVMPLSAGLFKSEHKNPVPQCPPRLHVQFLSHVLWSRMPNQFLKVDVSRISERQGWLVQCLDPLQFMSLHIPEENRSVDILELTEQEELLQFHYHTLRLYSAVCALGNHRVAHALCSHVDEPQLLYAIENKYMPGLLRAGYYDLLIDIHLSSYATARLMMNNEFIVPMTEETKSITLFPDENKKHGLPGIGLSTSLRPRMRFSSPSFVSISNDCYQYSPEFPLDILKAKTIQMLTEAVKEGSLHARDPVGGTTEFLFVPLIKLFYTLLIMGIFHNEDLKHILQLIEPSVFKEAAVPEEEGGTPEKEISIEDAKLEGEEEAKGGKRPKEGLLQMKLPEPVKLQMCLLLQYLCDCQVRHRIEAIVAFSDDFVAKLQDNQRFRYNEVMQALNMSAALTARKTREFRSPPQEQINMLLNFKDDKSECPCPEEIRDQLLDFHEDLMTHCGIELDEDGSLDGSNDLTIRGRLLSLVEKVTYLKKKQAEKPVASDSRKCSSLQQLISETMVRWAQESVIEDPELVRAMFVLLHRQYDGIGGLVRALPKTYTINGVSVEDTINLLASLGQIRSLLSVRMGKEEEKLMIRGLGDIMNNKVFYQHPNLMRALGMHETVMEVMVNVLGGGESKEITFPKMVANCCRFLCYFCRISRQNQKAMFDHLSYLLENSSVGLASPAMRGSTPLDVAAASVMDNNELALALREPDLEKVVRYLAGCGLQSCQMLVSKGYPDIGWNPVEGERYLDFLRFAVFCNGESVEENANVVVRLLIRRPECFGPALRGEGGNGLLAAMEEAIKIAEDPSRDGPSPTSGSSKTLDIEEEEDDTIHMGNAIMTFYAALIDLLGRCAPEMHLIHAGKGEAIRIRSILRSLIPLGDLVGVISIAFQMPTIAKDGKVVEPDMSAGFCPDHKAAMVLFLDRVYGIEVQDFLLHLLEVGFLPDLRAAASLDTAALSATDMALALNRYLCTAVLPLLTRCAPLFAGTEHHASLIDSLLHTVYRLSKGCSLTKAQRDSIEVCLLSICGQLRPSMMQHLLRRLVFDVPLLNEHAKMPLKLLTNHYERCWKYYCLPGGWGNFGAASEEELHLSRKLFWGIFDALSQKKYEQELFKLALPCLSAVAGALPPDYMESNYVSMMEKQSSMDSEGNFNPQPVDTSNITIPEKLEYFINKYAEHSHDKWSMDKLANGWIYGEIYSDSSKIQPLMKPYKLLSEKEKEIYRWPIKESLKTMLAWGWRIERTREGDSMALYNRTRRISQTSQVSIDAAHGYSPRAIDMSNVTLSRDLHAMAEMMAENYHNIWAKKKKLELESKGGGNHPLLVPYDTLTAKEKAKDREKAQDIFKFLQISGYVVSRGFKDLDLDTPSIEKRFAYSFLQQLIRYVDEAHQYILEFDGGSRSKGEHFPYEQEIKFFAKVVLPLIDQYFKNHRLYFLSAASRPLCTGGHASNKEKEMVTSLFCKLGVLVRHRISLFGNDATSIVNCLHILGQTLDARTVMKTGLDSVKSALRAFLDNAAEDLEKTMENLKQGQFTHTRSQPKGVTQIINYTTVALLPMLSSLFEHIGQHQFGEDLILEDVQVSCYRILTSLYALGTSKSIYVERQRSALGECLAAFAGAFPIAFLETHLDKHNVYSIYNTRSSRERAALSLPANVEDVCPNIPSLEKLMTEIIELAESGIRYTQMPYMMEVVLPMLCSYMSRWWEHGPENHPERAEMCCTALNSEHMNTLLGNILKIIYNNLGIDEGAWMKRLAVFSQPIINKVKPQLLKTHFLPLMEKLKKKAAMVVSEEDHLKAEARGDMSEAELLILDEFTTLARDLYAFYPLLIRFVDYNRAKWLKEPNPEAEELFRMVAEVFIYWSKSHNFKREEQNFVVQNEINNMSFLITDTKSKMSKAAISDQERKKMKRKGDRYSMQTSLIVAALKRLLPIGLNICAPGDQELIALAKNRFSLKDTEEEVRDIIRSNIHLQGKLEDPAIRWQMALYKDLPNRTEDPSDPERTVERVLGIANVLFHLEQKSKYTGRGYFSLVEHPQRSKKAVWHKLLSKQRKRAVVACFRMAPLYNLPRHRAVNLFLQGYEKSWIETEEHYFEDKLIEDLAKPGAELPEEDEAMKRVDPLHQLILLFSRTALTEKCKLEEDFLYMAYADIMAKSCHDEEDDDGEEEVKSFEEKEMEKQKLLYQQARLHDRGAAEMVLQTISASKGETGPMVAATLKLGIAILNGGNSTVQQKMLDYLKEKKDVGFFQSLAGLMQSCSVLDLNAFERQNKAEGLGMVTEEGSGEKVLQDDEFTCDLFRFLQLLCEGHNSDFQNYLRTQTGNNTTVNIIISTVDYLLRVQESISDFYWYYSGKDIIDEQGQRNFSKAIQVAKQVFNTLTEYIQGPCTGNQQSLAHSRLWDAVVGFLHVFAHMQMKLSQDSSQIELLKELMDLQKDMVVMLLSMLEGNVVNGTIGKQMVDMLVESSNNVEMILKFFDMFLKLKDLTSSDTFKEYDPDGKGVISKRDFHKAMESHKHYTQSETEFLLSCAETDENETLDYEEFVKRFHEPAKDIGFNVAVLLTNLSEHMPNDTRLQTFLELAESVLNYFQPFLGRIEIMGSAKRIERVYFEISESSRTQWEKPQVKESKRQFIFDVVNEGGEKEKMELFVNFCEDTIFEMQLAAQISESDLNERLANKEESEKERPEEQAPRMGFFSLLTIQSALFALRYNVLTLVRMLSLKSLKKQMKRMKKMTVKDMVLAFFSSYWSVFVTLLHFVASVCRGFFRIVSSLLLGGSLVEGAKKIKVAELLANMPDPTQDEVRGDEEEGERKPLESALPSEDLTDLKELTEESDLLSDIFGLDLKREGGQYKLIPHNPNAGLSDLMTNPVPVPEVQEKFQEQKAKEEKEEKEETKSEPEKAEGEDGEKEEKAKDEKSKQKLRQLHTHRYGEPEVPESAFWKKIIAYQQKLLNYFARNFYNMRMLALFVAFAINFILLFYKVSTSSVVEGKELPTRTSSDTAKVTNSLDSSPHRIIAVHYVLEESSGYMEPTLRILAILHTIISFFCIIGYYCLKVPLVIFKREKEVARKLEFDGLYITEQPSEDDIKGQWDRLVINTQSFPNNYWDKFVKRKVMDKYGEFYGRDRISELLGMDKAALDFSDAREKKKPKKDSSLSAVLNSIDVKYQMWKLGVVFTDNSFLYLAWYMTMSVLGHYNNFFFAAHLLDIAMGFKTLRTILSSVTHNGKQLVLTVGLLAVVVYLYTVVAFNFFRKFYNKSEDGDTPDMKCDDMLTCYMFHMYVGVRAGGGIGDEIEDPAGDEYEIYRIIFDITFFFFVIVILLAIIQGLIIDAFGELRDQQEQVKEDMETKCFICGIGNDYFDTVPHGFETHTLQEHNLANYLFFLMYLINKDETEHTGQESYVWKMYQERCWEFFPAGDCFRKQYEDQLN

[2] = Passive permeability of compound by PAMPA; type: ADME

In the case of `CCCCC[C@@H]1OC(=O)[C@@H](C)N(C)C(=O)[C@H](CCCCC)OC(=O)[C@@H](C)N(C)C(=O)[C@H](CCCCC)N(C)C(=O)[C@@H](C)N(C)C(=O)[C@H](CCCCC)OC(=O)[C@@H](C)N(C)C1=O`, the inhibition [1] is reported as “Active” and the permeability [2] is reported as “Permeable”.
In the case of `CCCCC[C@@H]1OC(=O)[C@@H](C)N(C)C(=O)[C@H](CCCCC)N(C)C(=O)[C@@H](C)N(C)C(=O)[C@H](CCCCC)N(C)C(=O)[C@@H](C)N(C)C(=O)[C@H](CCCCC)N(C)C(=O)[C@@H](C)N(C)C1=O`, the inhibition [1] is reported as “inactive”.
In the case of `CCCCC[C@@H]1OC(=O)[C@@H](C)N(C)C(=O)[C@H](CCCCC)N(C)C(=O)[C@@H](C)N(C)C(=O)[C@H](CCCCC)N(C)C(=O)[C@@H](C)N(C)C(=O)[C@H](CCCCC)OC(=O)[C@@H](C)N(C)C1=O`, the inhibition [1] is reported as “inactive”.
For `CCCCC[C@@H]1OC(=O)[C@@H](C)N(C)C(=O)[C@H](CCCCC)N(C)C(=O)[C@@H](C)N(C)C(=O)[C@H](CCCCC)OC(=O)[C@@H](C)N(C)C(=O)[C@H](CCCCC)N(C)C(=O)[C@@H](C)N(C)C1=O`, the inhibition [1] was “inactive”.
With `CCCCC[C@@H]1OC(=O)[C@@H](C)N(C)C(=O)[C@H](CCCCC)OC(=O)[C@@H](C)N(C)C(=O)[C@H](CCCCC)OC(=O)[C@@H](C)N(C)C(=O)[C@H](CCCCC)OC(=O)[C@@H](C)N(C)C1=O` the inhibition [1] was “inactive”.
In the case of `CCCCC[C@@H]1OC(=O)[C@@H](C)N(C)C(=O)[C@H](CCCCC)OC(=O)[C@@H](C)N(C)C(=O)[C@H](CCCCC)OC(=O)[C@@H](C)N(C)C(=O)[C@H](CCCCC)OC(=O)[C@@H](C)NC1=O`, the inhibition [1] is reported as “inactive”.
With `CCCCC[C@@H]1OC(=O)[C@@H](C)N(C)C(=O)[C@H](CCCCC)OC(=O)[C@@H](C)N(C)C(=O)[C@H](CCCCC)OC(=O)[C@@H](C)NC(=O)[C@H](CCCCC)OC(=O)[C@@H](C)NC1=O` the inhibition [1] was “inactive”.
In the case of `CCCCC[C@@H]1OC(=O)[C@@H](C)N(C)C(=O)[C@H](CCCCC)OC(=O)[C@@H](C)NC(=O)[C@H](CCCCC)OC(=O)[C@@H](C)N(C)C(=O)[C@H](CCCCC)OC(=O)[C@@H](C)NC1=O`, the inhibition [1] is reported as “inactive”.
With `CCCCC[C@@H]1OC(=O)[C@@H](C)N(C)C(=O)[C@H](CCCCC)OC(=O)[C@@H](C)NC(=O)[C@H](CCCCC)OC(=O)[C@@H](C)NC(=O)[C@H](CCCCC)OC(=O)[C@@H](C)NC1=O` the inhibition [1] was “inactive”.
In the case of `CCCCC[C@@H]1OC(=O)[C@@H](C)NC(=O)[C@H](CCCCC)OC(=O)[C@@H](C)NC(=O)[C@H](CCCCC)OC(=O)[C@@H](C)NC(=O)[C@H](CCCCC)OC(=O)[C@@H](C)NC1=O`, the inhibition [1] is reported as “inactive”.
With `CCCCC[C@@H]1NC(=O)[C@@H](C)N(C)C(=O)[C@H](CCCCC)NC(=O)[C@@H](C)N(C)C(=O)[C@H](CCCCC)NC(=O)[C@@H](C)N(C)C(=O)[C@H](CCCCC)NC(=O)[C@@H](C)N(C)C1=O` (cyclo([Ahp(2)][dNMeA][Ahp(2)][dNMeA][Ahp(2)][dNMeA][Ahp(2)][dNMeA])) the inhibition [1] was “inactive”.
With `CCCCC[C@@H]1NC(=O)[C@@H](C)N(C)C(=O)[C@H](CCCCC)NC(=O)[C@@H](C)N(C)C(=O)[C@H](CCCCC)N(C)C(=O)[C@@H](C)N(C)C(=O)[C@H](CCCCC)NC(=O)[C@@H](C)N(C)C1=O` (cyclo([Ahp(2)][dNMeA][Ahp(2)][dNMeA][Ahp(2)][dNMeA][NMeAhp(2)][dNMeA])) the inhibition [1] was “inactive”.
With `CCCCC[C@@H]1NC(=O)[C@@H](C)N(C)C(=O)[C@H](CCCCC)NC(=O)[C@@H](C)N(C)C(=O)[C@H](CCCCC)OC(=O)[C@@H](C)N(C)C(=O)[C@H](CCCCC)NC(=O)[C@@H](C)N(C)C1=O` (cyclo([Ahp(2)][dNMeA][Ahp(2)][dNMeA][Ahp(2)][dNMeA][X1][dNMeA])) the inhibition [1] was “inactive”.
In the case of `CCCCC[C@@H]1NC(=O)[C@@H](C)N(C)C(=O)[C@H](CCCCC)N(C)C(=O)[C@@H](C)N(C)C(=O)[C@H](CCCCC)N(C)C(=O)[C@@H](C)N(C)C(=O)[C@H](CCCCC)NC(=O)[C@@H](C)N(C)C1=O` (cyclo([Ahp(2)][dNMeA][Ahp(2)][dNMeA][NMeAhp(2)][dNMeA][NMeAhp(2)][dNMeA])), the inhibition [1] is reported as “inactive”.
In the case of `CCCCC[C@@H]1NC(=O)[C@@H](C)N(C)C(=O)[C@H](CCCCC)OC(=O)[C@@H](C)N(C)C(=O)[C@H](CCCCC)OC(=O)[C@@H](C)N(C)C(=O)[C@H](CCCCC)NC(=O)[C@@H](C)N(C)C1=O` (cyclo([Ahp(2)][dNMeA][Ahp(2)][dNMeA][X1][dNMeA][X1][dNMeA])), the inhibition [1] is reported as “inactive”.
In the case of `CCCCC[C@@H]1NC(=O)[C@@H](C)N(C)C(=O)[C@H](CCCCC)N(C)C(=O)[C@@H](C)N(C)C(=O)[C@H](CCCCC)NC(=O)[C@@H](C)N(C)C(=O)[C@H](CCCCC)N(C)C(=O)[C@@H](C)N(C)C1=O` (cyclo([Ahp(2)][dNMeA][NMeAhp(2)][dNMeA][Ahp(2)][dNMeA][NMeAhp(2)][dNMeA])), the inhibition [1] is reported as “inactive”.
With `CCCCC[C@@H]1NC(=O)[C@@H](C)N(C)C(=O)[C@H](CCCCC)N(C)C(=O)[C@@H](C)N(C)C(=O)[C@H](CCCCC)N(C)C(=O)[C@@H](C)N(C)C(=O)[C@H](CCCCC)N(C)C(=O)[C@@H](C)N(C)C1=O` (cyclo([Ahp(2)][dNMeA][NMeAhp(2)][dNMeA][NMeAhp(2)][dNMeA][NMeAhp(2)][dNMeA])) the inhibition [1] was “inactive”.
In the case of `CCCCC[C@@H]1NC(=O)[C@@H](C)N(C)C(=O)[C@H](CCCCC)OC(=O)[C@@H](C)N(C)C(=O)[C@H](CCCCC)NC(=O)[C@@H](C)N(C)C(=O)[C@H](CCCCC)OC(=O)[C@@H](C)N(C)C1=O` (cyclo([Ahp(2)][dNMeA][X1][dNMeA][Ahp(2)][dNMeA][X1][dNMeA])), the inhibition [1] is reported as “inactive”.
In the case of `CCCCC[C@@H]1NC(=O)[C@@H](C)N(C)C(=O)[C@H](CCCCC)OC(=O)[C@@H](C)N(C)C(=O)[C@H](CCCCC)OC(=O)[C@@H](C)N(C)C(=O)[C@H](CCCCC)OC(=O)[C@@H](C)N(C)C1=O` (cyclo([Ahp(2)][dNMeA][X1][dNMeA][X1][dNMeA][X1][dNMeA])), the inhibition [1] is reported as “Active” and the permeability [2] is reported as “Permeable”.
In the case of `CCCCC[C@H]1C(=O)N[C@H](C)C(=O)N(C)[C@@H](CCCCC)C(=O)N[C@H](C)C(=O)N(C)[C@@H](CCCCC)C(=O)N[C@H](C)C(=O)N(C)[C@@H](CCCCC)C(=O)N[C@H](C)C(=O)N1C` (cyclo([NMeAhp(2)][dA][NMeAhp(2)][dA][NMeAhp(2)][dA][NMeAhp(2)][dA])), the inhibition [1] is reported as “inactive”.
In the case of `CCCCC[C@H]1C(=O)N[C@H](C)C(=O)N(C)[C@@H](CCCCC)C(=O)N[C@H](C)C(=O)N(C)[C@@H](CCCCC)C(=O)N[C@H](C)C(=O)N(C)[C@@H](CCCCC)C(=O)N(C)[C@H](C)C(=O)N1C` (cyclo([NMeAhp(2)][dA][NMeAhp(2)][dA][NMeAhp(2)][dA][NMeAhp(2)][dNMeA])), the inhibition [1] is reported as “inactive”.
With `CCCCC[C@H]1C(=O)N[C@H](C)C(=O)N(C)[C@@H](CCCCC)C(=O)N[C@H](C)C(=O)N(C)[C@@H](CCCCC)C(=O)N(C)[C@H](C)C(=O)N(C)[C@@H](CCCCC)C(=O)N(C)[C@H](C)C(=O)N1C` (cyclo([NMeAhp(2)][dA][NMeAhp(2)][dA][NMeAhp(2)][dNMeA][NMeAhp(2)][dNMeA])) the inhibition [1] was “inactive”.
With `CCCCC[C@H]1C(=O)N[C@H](C)C(=O)N(C)[C@@H](CCCCC)C(=O)N(C)[C@H](C)C(=O)N(C)[C@@H](CCCCC)C(=O)N[C@H](C)C(=O)N(C)[C@@H](CCCCC)C(=O)N(C)[C@H](C)C(=O)N1C` (cyclo([NMeAhp(2)][dA][NMeAhp(2)][dNMeA][NMeAhp(2)][dA][NMeAhp(2)][dNMeA])) the inhibition [1] was “inactive”.
With `CCCCC[C@H]1C(=O)N[C@H](C)C(=O)N(C)[C@@H](CCCCC)C(=O)N(C)[C@H](C)C(=O)N(C)[C@@H](CCCCC)C(=O)N(C)[C@H](C)C(=O)N(C)[C@@H](CCCCC)C(=O)N(C)[C@H](C)C(=O)N1C` (cyclo([NMeAhp(2)][dA][NMeAhp(2)][dNMeA][NMeAhp(2)][dNMeA][NMeAhp(2)][dNMeA])) the inhibition [1] was “inactive”.
In the case of `CCCCC[C@H]1C(=O)N(C)[C@H](C)C(=O)N(C)[C@@H](CCCCC)C(=O)N(C)[C@H](C)C(=O)N(C)[C@@H](CCCCC)C(=O)N(C)[C@H](C)C(=O)N(C)[C@@H](CCCCC)C(=O)N(C)[C@H](C)C(=O)N1C` (cyclo([NMeAhp(2)][dNMeA][NMeAhp(2)][dNMeA][NMeAhp(2)][dNMeA][NMeAhp(2)][dNMeA])), the inhibition [1] is reported as “inactive”.
